Experiment: TGMS mass loss due to water after exposure to stress conditions
Format: physicochemical
Settings: between 6° and 160° C., after 2 days at 40° C. and 75% RH

Question: Which “mass loss (TGMS)” value does the source give for `CC(C)(C)NC[C@H](O)c1cncc(F)c1.O=C(O)C(=O)O` [Comparative Salt Example 9] here?
Answer: no significant mass loss
